From patent US9718813B2, “Imidazolin-5-one derivative useful as FASN inhibitors for the treatment of cancer” (Janssen Pharmaceutica, NV, priority 2013, dated 2017)

Key:
[1] = biological target: hFASN enzyme (full length) (Homo sapiens (Human), UniProt P49327); assay: Fatty Acid Synthase (FASN) Inhibition Scintillation Proximity Assay; type: biochemical; conditions: 3H-acetyl-CoA and malonyl-CoA substrates, SPA, mean if tested more than once; for IC50: read-out: Human FASN pIC50 (converted)
Protocol: In this assay, inhibition of FASN activity is measured using ^3H-acetyl-CoA and malonyl-CoA as substrates. ^3H-Acetyl CoA is converted to ^3H-palmitate through a series of reactions by the FASN protein, which contains 7 functional domains and carries out 7 enzymatic reactions to ultimately produce ^3H-palmitate. The assay principle is based upon the fact that ^3H-acetyl-CoA is hydrophilic and the end product, ^3H-palmitate is hydrophobic.
10 μL assay buffer (100 mM KH2PO4 pH 7.5, 1 mM DTT) (20 μL in blanks) was added to a 384-well white Opti Plate plate (Perkin Elmer). 0.9 μL test compound (at concentrations of 30 μM, 10 μM, 3 μM, 1 μM, 0.30 μM, 0.10 μM, 0.03 μM and 0.01 μM)/DMSO and 10 μL hFASN enzyme (full length, 300 ng, purified in house) or 10 μL assay buffer was added to the wells. […] The reaction was stopped by adding 20 μL Streptavidin coupled imaging beads (25 mg/ml). After incubation for 30 minutes at room temperature in the dark, the 384 well plate was centrifuged at 1500 rpm for 3 minutes and was measured after at least 24 hrs by the LEADseeker™, measuring emission using a 610±20 nm pass filter.
(§1) Raw data generated by the instrument were normalized to % Controlmin values, which were calculated as: % Controlmin=100*(x−mLC)/(mHC−mLC)
(§2) where mLC and mHC were the means of the low control wells and high control wells on the plate, after manual exclusion of outliers. A plot of Controlmin versus test compound concentration was fitted to a 4-parameter logistic curve using a non-linear least squares regression method.

[2] = biological target: FASN Keto-reductase Domain (hFASN enzyme, full length) (Homo sapiens (Human), UniProt P49327); assay: Fatty Acid Synthase Keto-reductase Domain (FASN KR) Inhibition; type: biochemical; conditions: NADPH oxidation at 340 nm, ethyl acetoacetate substrate; for IC50: read-out: FASN Keto-reductase Domain pIC50 (converted)
Sequence of FASN Keto-reductase Domain (hFASN enzyme, full length) (P49327 whole entry, the tested form may be a part): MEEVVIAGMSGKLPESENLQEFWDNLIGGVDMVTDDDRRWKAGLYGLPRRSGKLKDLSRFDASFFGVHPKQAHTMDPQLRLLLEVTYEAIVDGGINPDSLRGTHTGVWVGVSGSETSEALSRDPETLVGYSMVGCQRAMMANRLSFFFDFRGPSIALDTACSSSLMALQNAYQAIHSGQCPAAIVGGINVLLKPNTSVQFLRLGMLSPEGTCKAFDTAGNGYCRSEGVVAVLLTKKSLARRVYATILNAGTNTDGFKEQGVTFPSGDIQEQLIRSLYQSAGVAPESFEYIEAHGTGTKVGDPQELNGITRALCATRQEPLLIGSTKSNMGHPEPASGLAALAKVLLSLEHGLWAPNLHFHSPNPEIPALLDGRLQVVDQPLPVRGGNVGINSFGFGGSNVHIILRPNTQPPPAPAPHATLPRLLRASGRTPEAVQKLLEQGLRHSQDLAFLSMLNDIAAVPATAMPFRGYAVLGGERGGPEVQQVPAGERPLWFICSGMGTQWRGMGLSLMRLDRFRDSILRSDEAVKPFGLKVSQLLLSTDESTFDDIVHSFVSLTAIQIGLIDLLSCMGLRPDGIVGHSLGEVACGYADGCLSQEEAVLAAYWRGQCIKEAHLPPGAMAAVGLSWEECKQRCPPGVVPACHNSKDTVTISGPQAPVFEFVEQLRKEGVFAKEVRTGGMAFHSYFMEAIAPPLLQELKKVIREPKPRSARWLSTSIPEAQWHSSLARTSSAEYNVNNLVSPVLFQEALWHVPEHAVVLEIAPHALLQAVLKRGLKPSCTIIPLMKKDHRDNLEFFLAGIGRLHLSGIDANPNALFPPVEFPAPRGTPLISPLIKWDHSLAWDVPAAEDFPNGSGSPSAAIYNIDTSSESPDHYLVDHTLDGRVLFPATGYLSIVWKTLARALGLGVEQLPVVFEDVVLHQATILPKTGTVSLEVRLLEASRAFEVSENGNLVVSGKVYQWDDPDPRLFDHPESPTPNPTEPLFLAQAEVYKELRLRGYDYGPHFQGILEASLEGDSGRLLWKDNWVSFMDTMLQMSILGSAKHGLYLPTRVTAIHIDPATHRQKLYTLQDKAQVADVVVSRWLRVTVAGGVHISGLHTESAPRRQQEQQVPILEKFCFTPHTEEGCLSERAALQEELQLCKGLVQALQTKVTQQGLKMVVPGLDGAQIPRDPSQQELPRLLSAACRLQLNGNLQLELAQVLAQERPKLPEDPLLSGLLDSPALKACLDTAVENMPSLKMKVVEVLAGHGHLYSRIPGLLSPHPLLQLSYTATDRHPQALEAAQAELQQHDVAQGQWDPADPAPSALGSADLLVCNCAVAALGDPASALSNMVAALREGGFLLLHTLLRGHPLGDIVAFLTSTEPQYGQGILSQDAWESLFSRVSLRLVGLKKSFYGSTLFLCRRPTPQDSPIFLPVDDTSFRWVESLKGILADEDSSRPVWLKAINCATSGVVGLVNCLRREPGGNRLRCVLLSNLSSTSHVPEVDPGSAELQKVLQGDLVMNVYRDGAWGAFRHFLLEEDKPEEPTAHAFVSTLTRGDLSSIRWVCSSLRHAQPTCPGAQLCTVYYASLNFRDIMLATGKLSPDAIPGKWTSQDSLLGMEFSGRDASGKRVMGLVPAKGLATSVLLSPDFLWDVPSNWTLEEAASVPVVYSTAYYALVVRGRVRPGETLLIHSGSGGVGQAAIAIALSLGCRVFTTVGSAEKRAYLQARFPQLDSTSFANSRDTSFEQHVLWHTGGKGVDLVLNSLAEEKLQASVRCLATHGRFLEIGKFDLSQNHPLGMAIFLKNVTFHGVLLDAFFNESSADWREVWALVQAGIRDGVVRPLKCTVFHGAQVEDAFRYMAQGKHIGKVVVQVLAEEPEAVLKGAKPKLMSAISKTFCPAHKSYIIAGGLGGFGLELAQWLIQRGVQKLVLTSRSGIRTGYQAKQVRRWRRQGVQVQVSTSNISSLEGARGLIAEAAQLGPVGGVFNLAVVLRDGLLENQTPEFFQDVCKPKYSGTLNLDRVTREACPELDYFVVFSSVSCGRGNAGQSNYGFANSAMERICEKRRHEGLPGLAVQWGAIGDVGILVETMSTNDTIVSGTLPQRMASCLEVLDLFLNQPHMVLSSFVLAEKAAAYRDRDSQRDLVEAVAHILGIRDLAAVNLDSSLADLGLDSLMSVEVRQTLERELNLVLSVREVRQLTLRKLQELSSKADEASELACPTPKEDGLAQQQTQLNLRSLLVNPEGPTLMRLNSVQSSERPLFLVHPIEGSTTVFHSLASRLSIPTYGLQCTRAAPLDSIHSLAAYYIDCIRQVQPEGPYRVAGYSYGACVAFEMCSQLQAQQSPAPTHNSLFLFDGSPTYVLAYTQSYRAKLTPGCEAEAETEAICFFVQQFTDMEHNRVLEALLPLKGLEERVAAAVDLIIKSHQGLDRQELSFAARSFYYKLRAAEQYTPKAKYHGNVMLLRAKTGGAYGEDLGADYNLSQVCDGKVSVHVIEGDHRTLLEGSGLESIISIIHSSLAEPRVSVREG
Protocol: After 20 minutes incubation at room temperature the plate was measured again (T2).
The decrease in absorbance was calculated as (Absorbance before incubation T1)−(Absorbance following incubation T2).
as §1, §2

Sequence of hFASN enzyme (full length) (P49327 whole entry, the tested form may be a part): as above

Row | Structure (SMILES) | IC50 [1] [nM] | IC50 [2] [nM] | Human FASN pIC50 [1] | FASN Keto-reductase Domain pIC50 [2]
1 | CC1(c2ccccc2)N=C(c2ccc(-c3ccc4occc4c3)cc2)N(C[C@@H]2CCN(C(=O)C3CC3)C2)C1=O (mixture of isomers) [Compound 5, (4RS)-2-(4-(Benzofuran-5-yl)phenyl)-1-(((R)-1-(cyclopropanecarbonyl)pyrrolidin-3-yl)methyl)-4-methyl-4-phenyl-1H-imidazol-5(4H)-one] | 155 | 537 | – | –
2 | CC1(c2ccccc2)N=C(c2ccc(-c3ccc4[nH]ccc4c3)cc2)N(C[C@@H]2CCN(C(=O)C3CC3)C2)C1=O (mixture of isomers) [Compound 7, (4RS)-2-(4-(1H-Indol-5-yl)phenyl)-1-(((R)-1-(cyclopropanecarbonyl)pyrrolidin-3-yl)methyl)-4-methyl-4-phenyl-1H-imidazol-5(4H)-one] | 72.4 | 129 | – | –
3 | COCC1(C)N=C(c2ccc(-c3ccc4occc4c3)cc2)N(C[C@@H]2CCN(C(=O)C3CC3)C2)C1=O (mixture of isomers) [Compound 8, (4RS)-2-(4-(Benzofuran-5-yl)phenyl)-1-(((R)-1-(cyclopropanecarbonyl)pyrrolidin-3-yl)methyl)-4-(methoxymethyl)-4-methyl-1H-imidazol-5(4H)-one] | 240 | 389 | – | –
4 | CC1(C2CC2)N=C(c2ccc(-c3ccc4occc4c3)cc2)N(C[C@@H]2CCN(C(=O)C3CC3)C2)C1=O (mixture of isomers) [Compound 9, (4RS)-2-(4-(Benzofuran-5-yl)phenyl)-1-(((R)-1-(cyclopropanecarbonyl)pyrrolidin-3-yl)methyl)-4-cyclopropyl-4-methyl-1H-imidazol-5(4H)-one] | 331 | 603 | – | –
5 | CC1(C)N=C(c2ccc(-c3ccc4[nH]ccc4c3)cc2)N(C[C@@H]2CCN(C(=O)C3CC3)C2)C1=O [Compound 1, (R)-2-(4-(1H-Indol-5-yl)phenyl)-1-((1-(cyclopropanecarbonyl)pyrrolidin-3-yl)methyl)-4,4-dimethyl-1H-imidazol-5(4H)-one] | – | – | 7.32 | 6.86
6 | Cn1ncc2cc(-c3ccc(C4=NC(C)(C)C(=O)N4C[C@@H]4CCN(C(=O)C5CC5)C4)cc3)ccc21 [Compound 2, (R)-1-((1-(cyclopropanecarbonyl)pyrrolidin-3-yl)methyl)-4,4-dimethyl-2-(4-(1-methyl-1H-indazol-5-yl)phenyl)-1H-imidazol-5(4H)-one] | – | – | 6.85 | 6.15
7 | CC1(C)N=C(c2ccc(-c3ccc4occc4c3)cc2)N(C[C@@H]2CCN(C(=O)C3CC3)C2)C1=O [Compound 3, (R)-2-(4-(benzofuran-5-yl)phenyl)-1-((1-(cyclopropanecarbonyl)pyrrolidin-3-yl)methyl)-4,4-dimethyl-1H-imidazol-5(4H)-one] | – | – | 7.09 | 6.33
8 | CC1(C)N=C(c2ccc(-c3ccc4occc4c3)cc2)N(C[C@@H]2CCN(C(=O)C3(F)CC3)C2)C1=O [Compound 4, (R)-2-(4-(benzofuran-5-yl)phenyl)-1-((1-(1-fluorocyclopropanecarbonyl)pyrrolidin-3-yl)methyl)-4,4-dimethyl-1H-imidazol-5(4H)-one] | – | – | 6.92 | 6.22
9 | CC1(C)N=C(c2ccc(-c3nc4ccccc4o3)cc2)N(C[C@@H]2CCN(C(=O)C3CC3)C2)C1=O [Compound 11, (R)-2-(4-(benzo[d]oxazol-2-yl)phenyl)-1-((1-(cyclopropanecarbonyl)pyrrolidin-3-yl)methyl)-4,4-dimethyl-1H-imidazol-5(4H)-one] | – | – | 6.20 | 5.41
10 | CC1(C)N=C(c2ccc(-c3ccc(-c4ccncc4)cc3)cc2)N(C[C@@H]2CCN(C(=O)C3CC3)C2)C1=O [Compound 15, (R)-1-((1-(cyclopropanecarbonyl)pyrrolidin-3-yl)methyl)-4,4-dimethyl-2-(4′-(pyridin-4-yl)-[1,1′-biphenyl]-4-yl)-1H-imidazol-5(4H)-one] | – | – | 7.40 | 6.75
11 | Cn1cc(-c2ccc(-c3ccc(C4=NC(C)(C)C(=O)N4C[C@@H]4CCN(C(=O)C5CC5)C4)cc3)cc2)cn1 [Compound 16, (R)-1-((1-(cyclopropanecarbonyl)pyrrolidin-3-yl)methyl)-4,4-dimethyl-2-(4′-(1-methyl-1H-pyrazol-4-yl)-[1,1′-biphenyl]-4-yl)-1H-imidazol-5(4H)-one] | – | – | 6.99 | 6.20
12 | Cn1cc(-c2ccc(-c3ccc(C4=NC(C)(C)C(=O)N4CC4CN(C(=O)C5CC5)C4)cc3)cc2)cn1 [Compound 17, 1-((1-(cyclopropanecarbonyl)azetidin-3-yl)methyl)-4,4-dimethyl-2-(4′-(1-methyl-1H-pyrazol-4-yl)-[1,1′-biphenyl]-4-yl)-1H-imidazol-5(4H)-one] | – | – | 6.26 | 5.57
13 | CC1(C)N=C(c2ccc(-c3ccc(-c4ccncc4)cc3)cc2F)N(CC2CN(C(=O)C3CC3)C2)C1=O [Compound 22, 1-((1-(cyclopropanecarbonyl)azetidin-3-yl)methyl)-2-(3-fluoro-4′-(pyridin-4-yl)-[1,1′-biphenyl]-4-yl)-4,4-dimethyl-1H-imidazol-5(4H)-one] | – | – | 6.80 | 6.57
14 | CC1(C)N=C(c2ccc(-c3ccc4cccnc4c3)cc2)N(C[C@@H]2CCN(C(=O)C3CC3)C2)C1=O [Compound 23, (R)-1-((1-(cyclopropanecarbonyl)pyrrolidin-3-yl)methyl)-4,4-dimethyl-2-(4-(quinolin-7-yl)phenyl)-1H-imidazol-5(4H)-one] | – | – | 7.25 | 7.25
15 | CC1(C)N=C(c2ccc(-c3ccc4cccnc4c3)cc2)N(CC2CN(C(=O)C3CC3)C2)C1=O [Compound 24, 1-((1-(cyclopropanecarbonyl)azetidin-3-yl)methyl)-4,4-dimethyl-2-(4-(quinolin-7-yl)phenyl)-1H-imidazol-5(4H)-one] | – | – | 6.69 | 6.45
16 | CC1(C)N=C(c2ccc(-c3cnc4ccccc4c3)cc2)N(C[C@@H]2CCN(C(=O)C3CC3)C2)C1=O [Compound 25, (R)-1-((1-(cyclopropanecarbonyl)pyrrolidin-3-yl)methyl)-4,4-dimethyl-2-(4-(quinolin-3-yl)phenyl)-1H-imidazol-5(4H)-one] | – | – | 6.15 | 6.17
17 | CC1(C)N=C(c2ccc(-c3ccc(-c4ccncc4)cc3)cc2)N(CC2CN(C(=O)C3CC3)C2)C1=O [Compound 26, 1-((1-(cyclopropanecarbonyl)azetidin-3-yl)methyl)-4,4-dimethyl-2-(4′-(pyridin-4-yl)-[1,1′-biphenyl]-4-yl)-1H-imidazol-5(4H)-one] | – | – | ~6.22 | 6.08
18 | CC1(C)N=C(c2ccc(-c3ccc4cnccc4c3)cc2)N(CC2CN(C(=O)C3CC3)C2)C1=O [Compound 27, 1-((1-(cyclopropanecarbonyl)azetidin-3-yl)methyl)-2-(4-(isoquinolin-6-yl)phenyl)-4,4-dimethyl-1H-imidazol-5(4H)-one] | – | – | 6.72 | 6.41
19 | CC1(C)N=C(c2ccc(-c3ccc4cnccc4c3)cc2)N(C[C@@H]2CCN(C(=O)C3CC3)C2)C1=O [Compound 28, (R)-1-((1-(cyclopropanecarbonyl)pyrrolidin-3-yl)methyl)-2-(4-(isoquinolin-6-yl)phenyl)-4,4-dimethyl-1H-imidazol-5(4H)-one] | – | – | 7.23 | 7.14
20 | CC1(C)N=C(c2ccc(-c3ccc4cc(F)ccc4c3)cc2)N(CC2CN(C(=O)C3CC3)C2)C1=O [Compound 29, 1-((1-(cyclopropanecarbonyl)azetidin-3-yl)methyl)-2-(4-(6-fluoronaphthalen-2-yl)phenyl)-4,4-dimethyl-1H-imidazol-5(4H)-one] | – | – | 7.02 | 6.62
